Measured values: ChEMBL document CHEMBL5214893, “Saponins from Saffron Corms Inhibit the Gene Expression and Secretion of Pro-Inflammatory Cytokines” (J Nat Prod, 2021)
Active and inactive are the calls of the source.

Experiments:
Assay type in all cases: functional, cell-based
Settings in all cases: time 48.0 hrs
HaCaT [1] = experiment: […] of TNF-alpha/IFN-gamma induced MCP-1 expression in human HaCaT cells at 20 uM preincubated for 24 hrs followed by stimulation and measured after […] by ELISA analysis
HaCaT [2] = experiment: Downregulation of TNF-alpha/IFN-gamma induced RANTES expression in human HaCaT cells at 20 uM preincubated for 24 hrs followed by stimulation and measured after […] by ELISA analysis
HaCaT [3] = experiment: Effect on TNF-alpha/IFN-gamma induced- MCP-1 secretion in human HaCaT cells at 1 uM preincubated for 24 hrs followed by stimulation and measured after […] by ELISA analysis
HaCaT [4] = experiment: Effect on TNF-alpha/IFN-gamma-induced RANTES secretion in human HaCaT cells at 1 uM preincubated for 24 hrs followed by stimulation and measured after […] by ELISA analysis
HaCaT [5] = experiment: Effect on TNF-alpha/IFN-gamma-induced RANTES secretion in human HaCaT cells at 20 uM preincubated for 24 hrs followed by stimulation and measured after […] by ELISA analysis

Measured: Activity

C[C@@H]1O[C@@H](OCCCCCCC(=O)CCCCCCC(CC(=O)O[C@@H]2[C@H](O)[C@@H](O[C@@H]3O[C@@H](C)[C@H](O[C@@H]4OC[C@@H](O)[C@H](O)[C@H]4O)[C@@H](O)[C@H]3O[C@@H]3OC[C@H](O)[C@H](O)[C@H]3OC3O[C@H](CO)[C@H](O)[C@H](O)[C@H]3O)[C@H](OC(=O)[C@]34CCC(C)(C)C[C@H]3C3=CC[C@@H]5[C@@]6(C)CC[C@H](O[C@@H]7O[C@H](C(=O)O)[C@H](O)[C@H](O)[C@H]7O)C(C)(C)[C@@H]6CC[C@@]5(C)[C@]3(C)C[C@H]4O)O[C@@H]2C)O[C@H]2O[C@H](C)[C@@H](O)[C@H](O)[C@@H]2O)[C@H](O)[C@H](O)[C@H]1O (stereo partly specified)
active: HaCaT [1] | HaCaT [2] | HaCaT [3] | HaCaT [4]

C[C@@H]1O[C@@H](OCCCCCCC(=O)CCCCCCC(CC(=O)O[C@@H]2[C@H](O)[C@@H](O[C@@H]3O[C@@H](C)[C@H](O[C@@H]4OC[C@@H](O)[C@H](O)[C@H]4O)[C@@H](O)[C@H]3O[C@@H]3OC[C@H](O)[C@H](O)[C@H]3OC3O[C@H](CO)[C@H](O)[C@H](O)[C@H]3O)[C@H](OC(=O)[C@]34CCC(C)(C)C[C@H]3C3=CC[C@@H]5[C@@]6(C)CC[C@H](O[C@@H]7O[C@H](C(=O)O)[C@@H](O)[C@H](O)[C@H]7O)C(C)(C)[C@@H]6CC[C@@]5(C)[C@]3(C)C[C@H]4O)O[C@@H]2C)O[C@H]2O[C@H](C)[C@@H](O)[C@H](O)[C@@H]2O)[C@H](O)[C@H](O)[C@H]1O (stereo partly specified)
active: HaCaT [1] | HaCaT [2] | HaCaT [3] | HaCaT [4]

C[C@]12CCC(=O)C=C1CC[C@@H]1[C@@H]2[C@@H](O)C[C@@]2(C)[C@H]1CC[C@]2(O)C(=O)CO
active: HaCaT [1] | HaCaT [2] | HaCaT [5]
